≈ marks a conversion by molar mass, not a printed value. Like-named read-outs stand apart in the source and are kept apart here.
Legend:
[1] = Water Solubility Assay (measured in pH 7.8 buffer); type: physicochemical;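 also: precipitation onset detected as rise in absorbance at 650 nm across increasing concentrations, after shaking for 18 h, blank wells receiving DMSO only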
[2] = target: Human recombinant cyclophilin A (Cyp A) (Homo sapiens, UniProt P62937); test: Protease-free PPIase assay;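 also: cis to trans isomerization of SUC-AAPF-pNA by 2 nM enzyme, read as absorbance at 330 nm over 300 s at 10 °C, catalytic rate corrected for uncatalyzed background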
[3] = 35 mM HEPES buffer pH 7.8, 25 °C, aqueous buffer, kinetic from dmso stock, pH 7.8 buffer, read-out: Water Solubility Assay
[4] = 25 °C, pH 7.8, aqueous buffer, kinetic from dmso stock
[5] = read-out: Protease-free PPIase Assay Ki, cyclophilin A, 10 °C

Chain of Human recombinant cyclophilin A (Cyp A) (P62937 whole entry): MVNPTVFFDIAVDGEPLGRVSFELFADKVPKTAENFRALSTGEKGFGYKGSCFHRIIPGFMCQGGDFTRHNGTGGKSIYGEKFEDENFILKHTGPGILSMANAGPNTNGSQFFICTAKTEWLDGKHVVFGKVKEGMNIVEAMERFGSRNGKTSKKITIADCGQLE

SMILES	solubility at 18 h [1, 3] [µM]	Ki [2] [nM]	solubility at 18 h [1, 4] [µM]	also measured
CC[C@H]1NC(=O)[C@@H]([C@H](O)[C@H](C)CCN(C)Cc2ncccn2)N(C)C(=O)[C@@H](C(C)C)N(C)C(=O)[C@@H](CC(C)C)N(C)C(=O)[C@@H](CC(C)C)N(C)C(=O)[C@H](C)NC(=O)[C@@H](C)NC(=O)[C@@H](CC(C)C)N(C)C(=O)[C@@H](C(C)C)NC(=O)[C@H](CC(C)C)N(C)C(=O)[C@@H](C)N(C)C1=O [Compound DG, [(3R,4R,5S)-4-Hydroxy-3-methyl-5-(methylamino)-1-({pyrimidin-2-ylmethyl}-methylamino)-hexanoic acid]^1[(R)-methyl-Sar]^3 cyclosporin A]	> 100	8.5		
CC[C@H]1NC(=O)[C@@H]([C@H](O)[C@H](C)CCN(C)Cc2cccnc2)N(C)C(=O)[C@@H](C(C)C)N(C)C(=O)[C@@H](CC(C)C)N(C)C(=O)[C@@H](CC(C)C)N(C)C(=O)[C@H](C)NC(=O)[C@@H](C)NC(=O)[C@@H](CC(C)C)N(C)C(=O)[C@@H](C(C)C)NC(=O)[C@H](CC(C)C)N(C)C(=O)[C@@H](C)N(C)C1=O [Compound DF, [(3R,4R,5S)-4-Hydroxy-3-methyl-5-(methylamino)-1-({pyridin-3-ylmethyl}-methylamino)-hexanoic acid]^1[(R)-methyl-Sar]^3 cyclosporin A]	> 100	14		
CCC1NC(=O)C(C(O)C(C)CCN(CC)CC)N(C)C(=O)C(C(C)C)N(C)C(=O)C(CC(C)C)N(C)C(=O)C(CC(C)C)N(C)C(=O)C(C)NC(=O)C(C)NC(=O)C(CC(C)C)N(C)C(=O)C(C(C)C)NC(=O)C(CC(C)C)N(C)C(=O)C(C)N(C)C1=O [Compound M, [(3R,4R,5S)-4-hydroxy-3-methyl-5-(methylamino)-1-N-diethylamino-hexanoic acid]^1[(R)-Me-Sar]^3 cyclosporin A]				Water Solubility Assay, concentration at which the compound remains in solution ([1]; 35 mM HEPES pH 7.8, 1% DMSO, 25 °C, 18 h): 75 to 100 µM; Ki [2, 5]: 90 nM
CC[C@H]1NC(=O)[C@@H]([C@H](O)[C@H](C)CCN(C)CCS(N)(=O)=O)N(C)C(=O)[C@@H](C(C)C)N(C)C(=O)[C@@H](CC(C)C)N(C)C(=O)[C@@H](CC(C)C)N(C)C(=O)[C@H](C)NC(=O)[C@@H](C)NC(=O)[C@@H](CC(C)C)N(C)C(=O)[C@@H](C(C)C)NC(=O)[C@H](CC(C)C)N(C)C(=O)[C@@H](C)N(C)C1=O [Compound DE]		5.8	> 100	
CC[C@H]1NC(=O)[C@@H]([C@H](O)[C@H](C)CCCCCN2CCOCC2)N(C)C(=O)[C@@H](C(C)C)N(C)C(=O)[C@@H](CC(C)C)N(C)C(=O)[C@@H](CC(C)C)N(C)C(=O)[C@H](C)NC(=O)[C@@H](C)NC(=O)[C@@H](CC(C)C)N(C)C(=O)[C@@H](C(C)C)NC(=O)[C@H](CC(C)C)N(C)C(=O)CN(C)C1=O [Compound C, [(6R,7R,8S)-7-Hydroxy-6-methyl-8-(methylamino)-1-N-morpholinyl-nonanoic acid]^1 cyclosporin A]		14		solubility at 18 h ([1]; 35 mM HEPES buffer pH 7.8, aqueous buffer, kinetic from dmso stock, 35 mM HEPES pH 7.8, 1% DMSO, 25 °C, 18 h, read-out: Water Solubility Assay, concentration at which the compound remains in solution): > 100 µM
CC[C@H]1NC(=O)[C@@H]([C@H](O)[C@H](C)CCN(C)CCOC)N(C)C(=O)[C@@H](C(C)C)N(C)C(=O)[C@@H](CC(C)C)N(C)C(=O)[C@@H](CC(C)C)N(C)C(=O)[C@H](C)NC(=O)[C@@H](C)NC(=O)[C@@H](CC(C)C)N(C)C(=O)[C@@H](C(C)C)NC(=O)[C@H](CC(C)C)N(C)C(=O)[C@@H](C)N(C)C1=O [Compound AG]				solubility at 18 h ([1]; 35 mM HEPES pH 7.8, 1% DMSO, 25 °C, 18 h, read-out: Water Solubility Assay, concentration at which the compound remains in solution): >100 µM; Ki [2, 5]: 18 nM
CC[C@H]1NC(=O)[C@@H]([C@H](O)[C@H](C)CCN(C)Cc2cc(C(F)(F)F)nn2C)N(C)C(=O)[C@@H](C(C)C)N(C)C(=O)[C@@H](CC(C)C)N(C)C(=O)[C@@H](CC(C)C)N(C)C(=O)[C@H](C)NC(=O)[C@@H](C)NC(=O)[C@@H](CC(C)C)N(C)C(=O)[C@@H](C(C)C)NC(=O)[C@H](CC(C)C)N(C)C(=O)[C@@H](C)N(C)C1=O [Compound DO, [(3R,4R,5S)-4-Hydroxy-3-methyl-5-(methylamino)-1-({1-methyl-3-trifluoromethyl-2H-pyrazol-5-ylmethyl}-methylamino)-hexanoic acid]^1[(R)-methyl-Sar]^3 cyclosporin A]	10 to 25 (≈ 13.8 to 34.5 µg/mL)	2.8		

More lines, main results first:

solubility at 18 h [1, 3] [µM]	Ki [2] [nM]	solubility at 18 h [1, 4] [µM]	SMILES	also measured
25 to 50 (≈ 33.8 to 67.6 µg/mL)	6		CC[C@H]1NC(=O)[C@@H]([C@H](O)[C@H](C)CCN2CCOC(c3ccccc3)C2)N(C)C(=O)[C@@H](C(C)C)N(C)C(=O)[C@@H](CC(C)C)N(C)C(=O)[C@@H](CC(C)C)N(C)C(=O)[C@H](C)NC(=O)[C@@H](C)NC(=O)C(CC(C)C)N(C)C(=O)[C@@H](C(C)C)NC(=O)[C@H](CC(C)C)N(C)C(=O)[C@@H](C)N(C)C1=O (stereo partly drawn) [Compound DZ, [(3R,4R,5S)-4-Hydroxy-3-methyl-5-(methylamino)-1-(2-phenyl-morpholin-4-yl)-hexanoic acid]^1[(R)-methyl-Sar]^3 cyclosporin A]	
	4.7	> 100	CC[C@H]1NC(=O)[C@@H]([C@H](O)[C@H](C)CCN2CCOC[C@H]2C)N(C)C(=O)[C@@H](C(C)C)N(C)C(=O)[C@@H](CC(C)C)N(C)C(=O)[C@@H](CC(C)C)N(C)C(=O)[C@H](C)NC(=O)[C@@H](C)NC(=O)C(CC(C)C)N(C)C(=O)[C@@H](C(C)C)NC(=O)[C@H](CC(C)C)N(C)C(=O)[C@@H](C)N(C)C1=O (stereo partly drawn) [Compound DT, [(3R,4R,5S)-4-Hydroxy-3-methyl-5-methylamino-((R)-3-methyl-morpholin-4-yl)-hexanoic acid]^1[(R)-methyl-Sar]^3 cyclosporin A]	
	6.5	> 100	CC[C@H]1NC(=O)[C@@H]([C@H](O)[C@H](C)CCN2CCOC[C@@H]2C)N(C)C(=O)[C@@H](C(C)C)N(C)C(=O)[C@@H](CC(C)C)N(C)C(=O)[C@@H](CC(C)C)N(C)C(=O)[C@H](C)NC(=O)[C@@H](C)NC(=O)C(CC(C)C)N(C)C(=O)[C@@H](C(C)C)NC(=O)[C@H](CC(C)C)N(C)C(=O)[C@@H](C)N(C)C1=O (stereo partly drawn) [Compound DW, [(3R,4R,5S)-4-Hydroxy-3-methyl-5-(methylamino)-1-((S)-3-methyl-morpholin-4-yl)-hexanoic acid]^1[(R)-methyl-Sar]^3 cyclosporin A]	
	1.9	25 to 50 (≈ 33 to 66.1 µg/mL)	CS[C@@H]1C(=O)N(C)[C@@H](CC(C)C)C(=O)N[C@H](C(C)C)C(=O)N(C)[C@H](CC(C)C)C(=O)N[C@H](C)C(=O)N[C@@H](C)C(=O)N(C)[C@H](CC(C)C)C(=O)N(C)[C@H](CC(C)C)C(=O)N(C)[C@H](C(C)C)C(=O)N(C)[C@H]([C@H](O)[C@H](C)CCN2CCOCC2)C(=O)N[C@H](C(C)C)C(=O)N1C [Compound AM, [(3R,4R,5S)-4-Hydroxy-3-methyl-5-(methylamino)-1-morpholino-hexanoic acid]^1[(S)-thio-methyl-Sar]^3 cyclosporin D]	
	12	75 to 100 (≈ 97.8 to 130 µg/mL)	CC[C@H]1NC(=O)[C@@H]([C@H](O)[C@H](C)CCN2CCOC(C)(C)C2)N(C)C(=O)[C@@H](C(C)C)N(C)C(=O)[C@@H](CC(C)C)N(C)C(=O)[C@@H](CC(C)C)N(C)C(=O)[C@H](C)NC(=O)[C@@H](C)NC(=O)C(CC(C)C)N(C)C(=O)[C@@H](C(C)C)NC(=O)[C@H](CC(C)C)N(C)C(=O)[C@@H](C)N(C)C1=O (stereo partly drawn) [Compound DS, [(3R,4R,5S)-1-(3,3-Dimethyl-morpholin-4-yl)-4-hydroxy-3-methyl-5-(methylamino)-hexanoic acid]^1[(R)-methyl-Sar]^3 cyclosporin A]	
> 100	13		CC[C@H]1NC(=O)[C@@H]([C@H](O)[C@H](C)CCN2CCC3(CC2)OCCO3)N(C)C(=O)[C@@H](C(C)C)N(C)C(=O)[C@@H](CC(C)C)N(C)C(=O)[C@@H](CC(C)C)N(C)C(=O)[C@H](C)NC(=O)[C@@H](C)NC(=O)C(CC(C)C)N(C)C(=O)[C@@H](C(C)C)NC(=O)[C@H](CC(C)C)N(C)C(=O)[C@@H](C)N(C)C1=O (stereo partly drawn) [Compound DY, [(3R,4R,5S)-1-(1,4-Dioxa-8-aza-spiro[4.5]dec-8-yl)-4-Hydroxy-3-methyl-5-(methylamino)-hexanoic acid]^1[(R)-methyl-Sar]^3 cyclosporin A]	
	10	75 to 100 (≈ 97.9 to 131 µg/mL)	CC[C@H]1NC(=O)[C@@H]([C@H](O)[C@H](C)CCN2CCOCC2)N(C)C(=O)[C@@H](C(C)C)N(C)C(=O)[C@@H](CC(C)C)N(C)C(=O)[C@@H](CC(C)C)N(C)C(=O)[C@H](C)NC(=O)[C@@H](C)NC(=O)[C@@H](CC(C)C)N(C)C(=O)[C@@H](C(C)C)NC(=O)[C@H](CC(C)C)N(C)C(=O)[C@@H](COC)N(C)C1=O [Compound D, [(3R,4R,5S)-4-Hydroxy-3-methyl-5-(methylamino)-1-N-morpholino-hexanoic acid]^1[(R)-methoxymethylene-Sar]^3 cyclosporin A]	
> 100	9.2		CC[C@H]1NC(=O)[C@@H]([C@H](O)[C@H](C)CCN2CCn3cnnc3C2)N(C)C(=O)[C@@H](C(C)C)N(C)C(=O)[C@@H](CC(C)C)N(C)C(=O)[C@@H](CC(C)C)N(C)C(=O)[C@H](C)NC(=O)[C@@H](C)NC(=O)C(CC(C)C)N(C)C(=O)[C@@H](C(C)C)NC(=O)[C@H](CC(C)C)N(C)C(=O)[C@@H](C)N(C)C1=O (stereo partly drawn) [Compound DU, [(3R,4R,5S)-1-(5,6-Dihydro-8H-[1,2,4]triazolo[4,3-a]pyrazin-7-yl)-4-Hydroxy-3-methyl-5-(methylamino)-hexanoic acid]^1[(R)-methyl-Sar]^3 cyclosporin A]	
	7.7	25 to 50 (≈ 33.4 to 66.8 µg/mL)	CC[C@H]1NC(=O)[C@@H]([C@H](O)[C@H](C)CCN2CCOCC2)N(C)C(=O)[C@@H](C(C)C)N(C)C(=O)[C@@H](CC(C)C)N(C)C(=O)[C@@H](CC(C)C)N(C)C(=O)[C@H](C)NC(=O)[C@@H](C)NC(=O)[C@@H](CC(C)C)N(C)C(=O)[C@@H](C(C)C)NC(=O)[C@H](CC(C)C)N(C)C(=O)[C@@H](SC(C)C)N(C)C1=O [Compound I, [(3R,4R,5S)-4-Hydroxy-3-methyl-5-(methylamino)-1-N-morpholino-hexanoic acid]^1[(S)-thio-isopropyl-Sar]^3 cyclosporin A]	

Source: US20160039880A1 (priority 2012, published 2016)
